Legend:
[1] = molar heat capacity at constant pressure; settings: 101.33 kPa, Liquid, Small sample (50 mg) DSC
[2] = Liquid; for thermal diffusivity: 101.33 kPa, Laser flash apparatus

CCOC(=O)CCC(C)=O [ethyl levulinate]
Settings | Critical pressure [kPa] | Critical temperature [K] | molar heat capacity at constant pressure [J/K/mol] | thermal diffusivity [m2/s]
[1], 302.98 K | – | – | 275.22 | –
[1], 303.48 K | – | – | 275.79 | –
[1], 303.98 K | – | – | 276.51 | –
[1], 304.48 K | – | – | 276.37 | –
[1], 304.98 K | – | – | 275.65 | –
[1], 305.48 K | – | – | 276.08 | –
[1], 305.98 K | – | – | 275.65 | –
[1], 306.48 K | – | – | 276.08 | –
[1], 306.98 K | – | – | 276.95 | –
[1], 307.48 K | – | – | 277.24 | –
[1], 307.98 K | – | – | 277.67 | –
[1], 308.48 K | – | – | 277.52 | –
[1], 308.98 K | – | – | 277.38 | –
[1], 309.48 K | – | – | 277.67 | –
[1], 309.98 K | – | – | 277.96 | –
[1], 310.48 K | – | – | 278.53 | –
[1], 310.98 K | – | – | 278.82 | –
[1], 311.48 K | – | – | 277.96 | –
[1], 311.98 K | – | – | 278.24 | –
[1], 312.48 K | – | – | 277.24 | –
[1], 312.98 K | – | – | 278.53 | –
[1], 313.48 K | – | – | 278.82 | –
[1], 313.98 K | – | – | 279.25 | –
[1], 314.48 K | – | – | 279.25 | –
[1], 314.98 K | – | – | 279.25 | –
[1], 315.48 K | – | – | 278.53 | –
[1], 315.98 K | – | – | 279.25 | –
[1], 316.48 K | – | – | 278.68 | –
[1], 316.98 K | – | – | 278.97 | –
[1], 317.48 K | – | – | 279.69 | –
[1], 317.98 K | – | – | 279.4 | –
[1], 318.48 K | – | – | 279.83 | –
[1], 318.98 K | – | – | 279.69 | –
[1], 319.48 K | – | – | 279.83 | –
[1], 319.98 K | – | – | 279.54 | –
[1], 320.48 K | – | – | 280.55 | –
[1], 320.98 K | – | – | 280.98 | –
[1], 321.48 K | – | – | 280.7 | –
[1], 321.98 K | – | – | 279.97 | –
[1], 322.48 K | – | – | 280.55 | –
[1], 322.98 K | – | – | 280.84 | –
[1], 323.48 K | – | – | 281.42 | –
[1], 323.98 K | – | – | 281.13 | –
[1], 324.48 K | – | – | 281.42 | –
[1], 324.98 K | – | – | 281.56 | –
[1], 325.48 K | – | – | 281.27 | –
[1], 325.98 K | – | – | 281.99 | –
[1], 326.48 K | – | – | 282.57 | –
[1], 326.98 K | – | – | 282.14 | –
[1], 327.48 K | – | – | 282.43 | –
[1], 327.98 K | – | – | 282.57 | –
[1], 328.48 K | – | – | 283.29 | –
[1], 328.98 K | – | – | 283.15 | –
[1], 329.48 K | – | – | 282.86 | –
[1], 329.98 K | – | – | 283.29 | –
[1], 330.48 K | – | – | 283.87 | –
[1], 330.98 K | – | – | 284.01 | –
[1], 331.48 K | – | – | 284.01 | –
[1], 331.98 K | – | – | 284.16 | –
[1], 332.48 K | – | – | 284.44 | –
[1], 332.98 K | – | – | 284.16 | –
[1], 333.48 K | – | – | 284.3 | –
[1], 333.98 K | – | – | 284.01 | –
[1], 334.48 K | – | – | 284.88 | –
[1], 334.98 K | – | – | 285.74 | –
[1], 335.48 K | – | – | 285.6 | –
[1], 335.98 K | – | – | 285.89 | –
[1], 336.48 K | – | – | 285.6 | –
[1], 336.98 K | – | – | 285.89 | –
[1], 337.48 K | – | – | 285.74 | –
[1], 337.98 K | – | – | 285.6 | –
[1], 338.48 K | – | – | 286.17 | –
[1], 338.98 K | – | – | 286.32 | –
[1], 339.48 K | – | – | 286.32 | –
[1], 339.98 K | – | – | 286.03 | –
[1], 340.48 K | – | – | 286.32 | –
[1], 340.98 K | – | – | 285.74 | –
[1], 341.48 K | – | – | 286.17 | –
[1], 341.98 K | – | – | 286.46 | –
[1], 342.48 K | – | – | 286.75 | –
[1], 342.98 K | – | – | 285.89 | –
[1], 343.48 K | – | – | 286.61 | –
[1], 343.98 K | – | – | 286.9 | –
[1], 344.48 K | – | – | 287.76 | –
[1], 344.98 K | – | – | 288.34 | –
[1], 345.48 K | – | – | 287.47 | –
[1], 345.98 K | – | – | 288.63 | –
[1], 346.48 K | – | – | 288.19 | –
[1], 346.98 K | – | – | 287.9 | –
[1], 347.48 K | – | – | 288.05 | –
[1], 347.98 K | – | – | 288.48 | –
[1], 348.48 K | – | – | 288.48 | –
[1], 348.98 K | – | – | 288.19 | –
[1], 349.48 K | – | – | 289.2 | –
[1], 349.98 K | – | – | 289.2 | –
[1], 350.48 K | – | – | 289.35 | –
[1], 350.98 K | – | – | 289.2 | –
[1], 351.48 K | – | – | 289.63 | –
[1], 351.98 K | – | – | 289.2 | –
[1], 352.48 K | – | – | 289.78 | –
[1], 352.98 K | – | – | 290.5 | –
[1], 353.48 K | – | – | 289.78 | –
[1], 353.98 K | – | – | 290.36 | –
[1], 354.48 K | – | – | 290.21 | –
[1], 354.98 K | – | – | 289.92 | –
[1], 355.48 K | – | – | 289.92 | –
[1], 355.98 K | – | – | 289.78 | –
[1], 356.48 K | – | – | 289.92 | –
[1], 356.98 K | – | – | 291.08 | –
[1], 357.48 K | – | – | 290.93 | –
[1], 357.98 K | – | – | 290.64 | –
[1], 358.48 K | – | – | 290.93 | –
[1], 358.98 K | – | – | 290.79 | –
[1], 359.48 K | – | – | 291.51 | –
[1], 359.98 K | – | – | 292.09 | –
[1], 360.48 K | – | – | 291.65 | –
[1], 360.98 K | – | – | 292.09 | –
[1], 361.48 K | – | – | 292.52 | –
[1], 361.98 K | – | – | 291.51 | –
[1], 362.48 K | – | – | 292.66 | –
[1], 362.98 K | – | – | 292.81 | –
[1], 363.48 K | – | – | 293.82 | –
[1], 363.98 K | – | – | 293.53 | –
[1], 364.48 K | – | – | 293.67 | –
[1], 364.98 K | – | – | 294.25 | –
[1], 365.48 K | – | – | 294.39 | –
[1], 365.98 K | – | – | 295.4 | –
[1], 366.48 K | – | – | 294.54 | –
[1], 366.98 K | – | – | 295.83 | –
[1], 367.48 K | – | – | 295.55 | –
[1], 367.98 K | – | – | 295.98 | –
[1], 368.48 K | – | – | 295.83 | –
[1], 368.98 K | – | – | 296.84 | –
[1], 369.48 K | – | – | 296.84 | –
[1], 369.98 K | – | – | 296.27 | –
[1], 370.48 K | – | – | 296.99 | –
[1], 370.98 K | – | – | 296.27 | –
[1], 371.48 K | – | – | 296.55 | –
[1], 371.98 K | – | – | 296.84 | –
[1], 372.48 K | – | – | 296.84 | –
[1], 372.98 K | – | – | 296.84 | –
[1], 373.48 K | – | – | 296.99 | –
[1], 373.98 K | – | – | 297.13 | –
[2], 303.15 K | – | – | – | 7.9e-08
[2], 313.15 K | – | – | – | 7.8e-08
[2], 323.15 K | – | – | – | 7.7e-08
[2], 333.15 K | – | – | – | 7.6e-08
[2], 343.15 K | – | – | – | 7.5e-08
[2], 353.15 K | – | – | – | 7.4e-08
[2], 363.15 K | – | – | – | 7.25e-08
[2], 373.15 K | – | – | – | 7.15e-08
[2], Resistive pulse heating | 2970 | 669 | – | –

Reference: the NIST ThermoML archive (doi:10.1016/j.jct.2019.03.040)
